{"source": "patent US20250136997A1", "about": "“COMPOSITIONS FOR SEQUESTERING ISOAMYL AMINE AND METHODS OF USE THEREFOR” (University of Louisville Research Foundation, Inc., priority 2023, published 2025)", "key": {"microglial cells": {"tested_on": "microglial cells", "experiment": "Western blot of cleaved caspase-3 and cleaved PARP in ex vivo cultured microglial cells", "format": "cell-based, mouse", "experimental": "Isolation of microglia, neuron, astrocytes, and oligodendrocytes from the brain. Mice were anaesthetized with a mixture of ketamine (16%) and xylazine (3%) by intraperitoneal injection and then sacrificed under basal conditions by transcardial perfusion with perfusion buffer (Ca^2+/Mg^2+ free HBSS containing 0.5 mM EGTA, 10 mM HEPES and 4.2 mM NaHCO3; pH 7.2). The perfused brain was removed and gently mechanically disaggregated with tweezers in dissociation buffer (HBSS containing 10 mM HEPES and 4.2 mM NaHCO3 supplemented with Type I collagenase (0.05%), Dispase II (25 mg/ml), DNase I (2.5 mg/ml), trypsin inhibitor ([…]); pH 7.5) followed by incubation at 37° C. for 1 hour. The tissue homogenate was centrifuged at 1,350×g for 5 minutes at 4° C. For the isolation of microglia, the digestion enzymes in the tissue homogenate were inactivated by addition of PBS/EDTA containing 5% fetal bovine serum (FBS) and the digested brain bits were triturated gently, passed over a 100 µm filter (Fisher Scientific) and centrifuged. […] The pellet of cells was rinsed in PBS. Any contaminating red blood cells (RBC) were lysed using RBC lysis buffer (Sigma) according to the manufacturer's instructions, rinsed twice with PBS and passed through a 40 µm filter (Fisher Scientific). Cells were then stained for CD11b and CD45 for flow cytometry analysis. The astrocytes were isolated from mouse cortices (n=10). The tissue homogenate was centrifuged at 800×g for 10 minutes at 4° C. following digestion with type II collagenase (1 mg/ml) and type I DNase (10 U/ml) in DMEM for 10 minutes. The cells pelleted by centrifugation were plated in a 100 mm culture dish coated with poly-L-ornithine (Sigma). For the isolation of oligodendrocytes, the glial cells above were cultured in specific media containing T3 and T4 (0.5 mM) as well as platelet-derived growth factor (PDGF, 10 ng/ml) to promote the growth of the different cell types. Isolated glial cells were labelled with the following antibodies against surface markers: CD11b (Biolegend, Cat #101206), CD45 (Biolegend, Cat #147710), GFAP (Biolegend, Cat #837508) and MOG (Biorbyt, Cat #orb412341-FITC). Cells positive for CD11b and CD45Med were identified as microglia. Cells positive for GFAP and negative for CD45 and CD11b were identified as astrocytes. Cells sorted with MOG+CD11b− were identified as oligodendrocytes. Neurons were isolated from mouse brain using the Pierce Primary Neuron Isolation Kit (Thermo Scientific, Cat #88280). Briefly, the tissue homogenate from freshly dissected cortexes was suspended in an equal volume of ice cold HBSS (Sigma) and replaced with Neuronal Isolation Enzyme (with papain) in a 37° C. incubator for 30 minutes. After washing with HBSS, the tissue was cultured in a poly-D-lysine coated plate with Neuronal Culture Medium.\n(§1) Western blotting. Cells were treated as indicated in individual Figure legends and whole cell extracts (WCE) were prepared in the radioimmunoprecipitation assay (RIPA) buffer (Sigma) with addition of protease and phosphatase inhibitors (Roche). Proteins were separated by 10% SDS-PAGE and transferred to polyvinylidene difluoride (PVDF) membranes (Bio-Rad Laboratories, Inc., Hercules, CA). Dual color precision protein MW markers (BioRad) were separated in parallel. Antibodies were purchased as follows: cleaved-caspase-3 (ab214430), cleaved PARP (ab203467) and GAPDH (ab9657, Abcam) from Abcam; S100A8 (47310) and S100a9 (72590) from Cell Signaling; and Ltf (GTX81085) from GeneTex. The secondary antibodies conjugated to Fluors Alex-488 (A32723) or Alex-594 (A11012) were purchased from Invitrogen (Eugene, OR). The bands were visualized on the Odyssey Imager (LiCor Inc, Lincoln, NE)."}, "S100A8": {"tested_on": "S100A8", "experiment": "Western blot of S100A8 in p53 KO microglia after IAA", "format": "cell-based, mouse", "conditions": "p53 KO with CRISPR-Cas9, IAA 12 h", "experimental": "as §1"}, "[1]": {"experiment": "T-maze spontaneous alternation (TMSA) test", "format": "in vivo, mouse", "conditions": "IAA to young mice", "experimental": "T-maze test. To evaluate the cognitive impairment without requirement of full motor function, modified T-Maze test (Deacon and Rawlins, 2006) was carried out. Mice were gently handled, habituated to the T-Maze apparatus, and subjected to food deprivation. On the forced alternation sample trial (T1), the animals were exposed to the T-maze with one of the arms opened and rewarded with pellet at end of the arm. The opposite arm was blocked by a guillotine door. The mouse was allowed to explore the open arm and consume the reward. Ten consecutive trials were performed, then the mouse was removed. After 30 min, retrieval testing (T2) was performed. The blocked arm was opened and the mouse was placed in the same start position. […] If the mouse entered the same arm as in T1, the mouse was confined for 10 seconds and this response was marked as an “Error”. Each mouse was subjected to 10 consecutive runs. Forced Alternation [%] was defined as the percent of mice first entering the novel arm during T2. […] The three- or four-day intersession interval is used to assess recognition memory performances."}, "[2]": {"experiment": "Electroencephalography (EEG) recording in mice", "format": "in vivo, mouse", "experimental": "Electroencephalography (EEG) recording in mice. Groups of mice were anesthetized by peritoneal administration of ketamine (90 mg/kg) and xylazine (10 mg/kg) mixture. Mice that were not responsive to nociceptive stimuli were consider anesthetized and were administered the analgesic buprenorphine (0.1 mg/kg). The fur of the skull area was removed, placed on surgical bench and skin area were cleaned with betadine and 70% ethyl alcohol. The midline scalp skin was lifted using forceps and an incision made from the frontal cranial bone to the back of the parietal cranial bones. The skin was push aside and cleaned with betadine using cotton swabs. The skull was cleaned and marked for placement of electrodes. Two craniotomies 0.25-0.5 mm in diameter on the side of each hemisphere were established a 3 mm distance from the midline vertical fissure in the frontal and occipital regions; a hand-held drill (Kopf) with matching drill bits (0.5 mm) was used for the craniotomies. Four electrodes were placed in appropriate skull holes over the frontal cortex (FC) and occipital cortex (OC). A ground/reference electrode was also implanted in the most anterior region of cerebellum. Thus, two independent EEG channels were created for FC and OC on each side of the hemisphere. […]"}, "[3]": {"conditions": "added to ex vivo cultured microglial cells from young mice"}}, "data": [{"smiles": "CC(C)CCN", "note": "[IAA, isoamylamine]", "values": [{"measurement": "effect on the microglia (cleaved caspase-3)", "setting": "microglial cells; S100A8 deficient microglia cells", "result": "abolished"}, {"measurement": "cleaved caspase-3", "setting": "microglial cells; [3]", "result": "increasing"}, {"measurement": "cleaved poly(-ADP-ribose) polymerase (PARP)", "setting": "microglial cells; [3]", "result": "increasing"}, {"measurement": "S100A8 induced by IAA (western blot)", "setting": "S100A8", "result": "p53 dependent"}, {"measurement": "deficit of spatial learning in the TMSA (percentage of correct choices)", "setting": "[1]; phage to aged mice", "result": "induced the deficit"}, {"measurement": "percentage of alternating choices (exploring new arm), TMSA", "setting": "[1]; phage^TSD-27 to aged mice", "result": "reduced young mice exploring the new path"}, {"measurement": "EEG rhythms coherence", "setting": "[2]; IAA mice vs control, phage to aged mice", "result": "incoherence"}, {"measurement": "distributions of DSA (bilateral symmetry)", "setting": "[2]; IAA-treated young mice, phage-treated aged mice", "result": "asymmetric bilaterally"}]}]}
